From PMC8187479, “Sugar phosphate activation of the stress sensor eIF2B” (Nature Communications, 2021)

What follows are compounds tested against T1, eIF2Bα (Homo sapiens, UniProt Q14232) (assay: MIDAS (mass spectrometry integrated with equilibrium dialysis) metabolite binding screen). Conditions: MIDAS metabolite binding screen with eIF2Bα; sheet "eIF2Ba".
T1 construct: made in house; host or cells: E. coli BL21(DE3)
T1 sequence (Q14232 1-305): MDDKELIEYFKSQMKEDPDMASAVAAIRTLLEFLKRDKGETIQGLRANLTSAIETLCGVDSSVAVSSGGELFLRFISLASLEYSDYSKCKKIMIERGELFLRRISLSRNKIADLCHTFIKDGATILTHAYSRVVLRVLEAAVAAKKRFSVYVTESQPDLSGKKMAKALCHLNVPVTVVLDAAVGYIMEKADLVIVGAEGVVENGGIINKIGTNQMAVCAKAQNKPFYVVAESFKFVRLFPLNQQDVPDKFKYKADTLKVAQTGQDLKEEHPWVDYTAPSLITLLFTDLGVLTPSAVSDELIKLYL
Procedure, shortened: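 Hits called at Storey q < 0.1 on z-scores of PCA-corrected log2 fold change between protein and metabolite chambers, quantified by FIA-MS in triplicate.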
In the case of Nc1ncnc2c1ncn2[C@H]1C[C@H](O)[C@@H](COP(=O)(O)OP(=O)(O)O)O1 [Deoxyadenosine diphosphate], the “log2(corrected fold change)” value is reported as -0.1103. In the case of Nc1ncnc2c1ncn2[C@H]1C[C@H](O)[C@@H](COP(=O)(O)O)O1 [Deoxyadenosine monophosphate], the “log2(corrected fold change)” value is reported as -0.0746. Nc1ccn([C@H]2C[C@H](O)[C@@H](COP(=O)(O)OP(=O)(O)OP(=O)(O)O)O2)c(=O)n1 [Deoxycytidine triphosphate] was tested, and the “log2(corrected fold change)” value was -0.0001501. With O=C(O)CCCCCCCCCCC(=O)O [Dodecanedioic acid] the “log2(corrected fold change)” value was 0.00577. For CNC[C@H](O)c1ccc(O)c(O)c1 [Epinephrine], the “log2(corrected fold change)” value was -0.04113. NCCO [Ethanolamine] was tested, and the “log2(corrected fold change)” value was 0.0208. In the case of CCC(C(=O)O)C(=O)O [Ethylmalonic acid], the “log2(corrected fold change)” value is reported as -0.03876. For Cc1cc2nc3c(=O)[nH]c(=O)nc-3n(C[C@H](O)[C@H](O)[C@H](O)COP(=O)(O)OP(=O)(O)OC[C@H]3O[C@@H](n4cnc5c(N)ncnc54)[C@H](O)[C@@H]3O)c2cc1C [Flavin adenine dinucleotide], the “log2(corrected fold change)” value was -0.0588. In the case of Nc1nc(=O)c2nc(CNc3ccc(C(=O)N[C@@H](CCC(=O)O)C(=O)O)cc3)cnc2[nH]1 [Folic acid], the “log2(corrected fold change)” value is reported as -0.02054. For OC[C@H]1O[C@H](OC2[C@@H](O)[C@H](O)C(O)[C@H](O)[C@@H]2O)[C@H](O)[C@@H](O)[C@H]1O (some centres unmarked) [Galactinol], the “log2(corrected fold change)” value was -0.02052. With O=C1O[C@H](CO)[C@@H](O)[C@H](O)[C@H]1O [Glucono delta-lactone] the “log2(corrected fold change)” value was 0.01629. In the case of O=C(O)CCCC(=O)O [Glutaric acid], the “log2(corrected fold change)” value is reported as -0.03876. With O=C(O)CO [Glycolic acid] the “log2(corrected fold change)” value was -0.06864. With O=CC(=O)O [Glyoxylate] the “log2(corrected fold change)” value was -0.02095. In the case of Nc1nc2c(ncn2[C@@H]2O[C@H](COP(=O)(O)OP(=O)(O)O)[C@@H](O)[C@H]2O)c(=O)[nH]1 [Guanosine 5-diphosphate], the “log2(corrected fold change)” value is reported as -0.07145. In the case of Nc1nc2c(ncn2[C@@H]2O[C@H](COP(=O)(O)OP(=O)(O)O[C@H]3O[C@H](CO)[C@@H](O)[C@H](O)[C@@H]3O)[C@@H](O)[C@H]2O)c(=O)[nH]1 [Guanosine diphosphate mannose], the “log2(corrected fold change)” value is reported as 0.001828. Nc1nc2c(ncn2[C@@H]2O[C@H](CO)[C@@H](O)[C@H]2O)c(=O)[nH]1 [Guanosine] was tested, and the “log2(corrected fold change)” value was 0.01196. For O=C(O)CNC(=O)c1ccccc1 [Hippuric acid], the “log2(corrected fold change)” value was 0.07626. With COc1cc(CC(=O)O)ccc1O [Homovanillic acid] the “log2(corrected fold change)” value was -0.006498. With O=C(O)C(=O)CO [Hydroxypyruvate] the “log2(corrected fold change)” value was -0.04906. CC(C)CC(=O)SCCNC(=O)CCNC(=O)[C@H](O)C(C)(C)COP(=O)(O)OP(=O)(O)OC[C@H]1O[C@@H](n2cnc3c(N)ncnc32)[C@H](O)[C@@H]1OP(=O)(O)O [Isovaleryl coenzyme A] was tested, and the “log2(corrected fold change)” value was 0.1853. In the case of O=C(O)CCC(=O)C(=O)O [Ketoglutaric acid], the “log2(corrected fold change)” value is reported as 0.06742. C[C@H](N)C(=O)O [L-Alanine] was tested, and the “log2(corrected fold change)” value was 0.0004222. CC[C@@H](C)[C@H](N)C(=O)O [L-Alloisoleucine] was tested, and the “log2(corrected fold change)” value was -0.00688. O=C[C@H](O)[C@@H](O)[C@@H](O)CO [L-Arabinose_1] was tested, and the “log2(corrected fold change)” value was 0.02262. NCCC(=O)N[C@@H](Cc1cnc[nH]1)C(=O)O [L-Carnosine] was tested, and the “log2(corrected fold change)” value was -0.01554. NC(=O)NCCC[C@H](N)C(=O)O [L-Citrulline] was tested, and the “log2(corrected fold change)” value was -0.01086. In the case of N[C@@H](CCSC[C@H](N)C(=O)O)C(=O)O [L-Cystathionine], the “log2(corrected fold change)” value is reported as -0.03443. In the case of N[C@@H](CS(=O)(=O)O)C(=O)O [L-Cysteic acid], the “log2(corrected fold change)” value is reported as 0.001606. N[C@@H](CSSC[C@H](N)C(=O)O)C(=O)O [L-Cystine] was tested, and the “log2(corrected fold change)” value was 0.04101. C[C@@H]1O[C@H](OP(=O)(O)O)[C@@H](O)[C@H](O)[C@@H]1O [L-Fucose 1-phosphate] was tested, and the “log2(corrected fold change)” value was -0.0359. C[C@H](O)[C@@H](O)[C@@H](O)[C@H](O)C=O [L-Fucose] was tested, and the “log2(corrected fold change)” value was -0.06063. In the case of O=C1O[C@H]([C@@H](O)CO)[C@H](O)[C@@H]1O [L-Gulonic acid gamma-lactone], the “log2(corrected fold change)” value is reported as 0.02733. O=C(O)CC[C@H](O)C(=O)O [L-Hydroxyglutaric acid] was tested, and the “log2(corrected fold change)” value was -0.0058. CC[C@H](C)[C@H](N)C(=O)O [L-Isoleucine] was tested, and the “log2(corrected fold change)” value was -0.00688. For C[C@H](O)C(=O)O [L-Lactic acid], the “log2(corrected fold change)” value was -0.02892. In the case of CC(C)C[C@H](N)C(=O)O [L-Leucine], the “log2(corrected fold change)” value is reported as -0.00688. In the case of O=C(O)C[C@H](O)C(=O)O [L-Malic acid], the “log2(corrected fold change)” value is reported as -0.01079. In the case of N[C@@H](Cc1ccccc1)C(=O)O [L-Phenylalanine], the “log2(corrected fold change)” value is reported as -0.04409.

Same assay, conditions: MIDAS screen, sheet eIF2Ba; metabolites screened in pools 1-4; p-value and q-value given
For Nc1nc2c(ncn2[C@H]2C[C@H](O)[C@@H](COP(=O)(O)O)O2)c(=O)[nH]1 [Deoxyguanylate], the “log2(corrected fold change)” value was 0.08261. In the case of CC(C)(COP(=O)(O)OP(=O)(O)OC[C@H]1O[C@@H](n2cnc3c(N)ncnc32)[C@H](O)[C@@H]1O)[C@@H](O)C(=O)NCCC(=O)NCCS [Dephosphocoenzyme A], the “log2(corrected fold change)” value is reported as -0.1841. In the case of Nc1ncnc2c1ncn2[C@@H]1O[C@H](COP(=O)(O)OP(=O)(O)OP(=O)(O)OC[C@@H]2O[C@H](n3cnc4c(N)ncnc43)[C@@H](O)[C@H]2O)[C@@H](O)[C@H]1O [Diadenosine triphosphate], the “log2(corrected fold change)” value is reported as -0.1669. For Nc1nc2c(c(=O)[nH]1)N=C(CNc1ccc(C(=O)N[C@@H](CCC(=O)O)C(=O)O)cc1)CN2 [Dihydrofolic acid], the “log2(corrected fold change)” value was -0.03543. In the case of CC1CNC(=O)NC1=O (centres unmarked) [Dihydrothymine], the “log2(corrected fold change)” value is reported as -0.08021. With O=C1CCNC(=O)N1 [Dihydrouracil] the “log2(corrected fold change)” value was -0.08721. In the case of CN(C)c1ncnc2nc[nH]c12 [Dimethylaminopurine], the “log2(corrected fold change)” value is reported as -0.08009. In the case of OC[C@@H](O)[C@H](O)[C@H](O)[C@@H](O)CO [Dulcitol], the “log2(corrected fold change)” value is reported as -0.4944. In the case of Nc1nc(=O)c2c([nH]1)NC[C@@H](CNc1ccc(C(=O)N[C@@H](CCC(=O)O)C(=O)O)cc1)N2C=O [Folinic acid], the “log2(corrected fold change)” value is reported as 0.129. With N[C@@H](CCC(=O)N[C@@H](CS)C(=O)O)C(=O)O [Gamma-Glu-Cys] the “log2(corrected fold change)” value was 0.1652. O=C(CO)COP(=O)(O)O [Glycerone phosphate] was tested, and the “log2(corrected fold change)” value was 0.09175. With NC(N)=NCC(=O)O [Guanidineacetic acid] the “log2(corrected fold change)” value was 0.1469. For Nc1nc2nc[nH]c2c(=O)[nH]1 [Guanine], the “log2(corrected fold change)” value was 0.2851. Nc1nc2c(ncn2[C@@H]2O[C@H](COP(=O)(O)O)[C@@H](O)[C@H]2O)c(=O)[nH]1 [Guanosine 5-monophosphate] was tested, and the “log2(corrected fold change)” value was 1.415. In the case of Nc1nc2c(ncn2[C@@H]2O[C@H](COP(=O)(O)OP(=O)(O)OP(=O)(O)O)[C@@H](O)[C@H]2O)c(=O)[nH]1 [Guanosine 5-triphosphate], the “log2(corrected fold change)” value is reported as 0.3966. NCCc1c[nH]cn1 [Histamine] was tested, and the “log2(corrected fold change)” value was 0.1325. In the case of NC(=O)NCCCC[C@H](N)C(=O)O [Homocitrulline], the “log2(corrected fold change)” value is reported as 0.1565. With O=C(O)Cc1cc(O)ccc1O [Homogentisic acid] the “log2(corrected fold change)” value was -0.08584. With NCCS(=O)O [Hypotaurine] the “log2(corrected fold change)” value was 0.03998. For O=c1[nH]cnc2nc[nH]c12 [Hypoxanthine], the “log2(corrected fold change)” value was 0.136. O=c1[nH]cnc2c1ncn2[C@@H]1O[C@H](COP(=O)(O)OP(=O)(O)OP(=O)(O)O)[C@@H](O)[C@H]1O [Inosine 5-triphosphate] was tested, and the “log2(corrected fold change)” value was -0.2055. For O=c1[nH]cnc2c1ncn2[C@@H]1O[C@H](CO)[C@@H](O)[C@H]1O [Inosine], the “log2(corrected fold change)” value was 0.3045. With CC(C)C(=O)NCC(=O)O [Isobutyrylglycine] the “log2(corrected fold change)” value was -0.09012. OC[C@H]1O[C@H](OC[C@H]2OC(O)[C@H](O)[C@@H](O)[C@@H]2O)[C@H](O)[C@@H](O)[C@@H]1O (some centres unmarked) [Isomaltose] was tested, and the “log2(corrected fold change)” value was -0.3372. CC[C@H](N)C(=O)O [L-2-Aminobutyric acid] was tested, and the “log2(corrected fold change)” value was -0.1029. In the case of O[C@@H]1[C@@H](O)[C@@H](O)CO[C@H]1O [L-Arabinose], the “log2(corrected fold change)” value is reported as -0.1354. NC(=O)C[C@H](N)C(=O)O [L-Asparagine] was tested, and the “log2(corrected fold change)” value was 0.07649. In the case of N[C@@H](CC(=O)O)C(=O)O [L-Aspartate], the “log2(corrected fold change)” value is reported as 0.03257. For N[C@@H](CS)C(=O)O [L-Cysteine], the “log2(corrected fold change)” value was -0.1221. O=C1C[C@@H](C(=O)O)NC(=O)N1 [L-Dihydroorotic acid] was tested, and the “log2(corrected fold change)” value was -0.07946. For N[C@@H](CCC(=O)O)C(=O)O [L-Glutamic acid], the “log2(corrected fold change)” value was -0.006334. NC(=O)CC[C@H](N)C(=O)O [L-Glutamine] was tested, and the “log2(corrected fold change)” value was 0.1976. In the case of N[C@@H](Cc1c[nH]cn1)C(=O)O [L-Histidine], the “log2(corrected fold change)” value is reported as 0.05971. For Nc1ccccc1C(=O)C[C@H](N)C(=O)O [L-Kynurenine], the “log2(corrected fold change)” value was 0.1418. For NCCCC[C@H](N)C(=O)O [L-Lysine], the “log2(corrected fold change)” value was -0.06897. In the case of CSCC[C@H](N)C(=O)O [L-Methionine], the “log2(corrected fold change)” value is reported as 0.06465. With O=C(O)[C@@H]1CCCCN1 [L-Pipecolic acid] the “log2(corrected fold change)” value was -0.07553. O=C(O)[C@@H]1CCCN1 [L-Proline] was tested, and the “log2(corrected fold change)” value was -0.05584.
